Data set [1] can be described thus: Plasma stability of the peptide conjugates in human blood plasma/PBS (HPLC).
Description: The peptide conjugates (10-20 μg) was added to a human blood plasma/PBS mixture (1:1) in a total volume of 500 μl and incubated at 37° C. After incubation 100 μl per time point (0 and 240 min) was transferred to YM-10 (Microcon, cut-off 10000 MW; manufacturer Millipore), centrifuged (10000 RPM) 15 min at 4° C. 50 μl of the spin-through material was analyzed by HPLC.
HPLC: Waters 626 pump, 600S controller, Waters 996 photo diode array detector. Column: C18, 300 Å, 5 μm, 2.1×250 mm. Eluents for the non-conjugated functional peptides: A 0.1% TFA, B 0.075% TFA/100% ACN. Gradient: 0-100% B in 60 min. Flow: 180 μl/min. Loop: 50 μl.
Eluents for the functional peptide conjugates: Eluent A: 0.05 M ammonium acetate; B: 50% 0.05 M ammonium acetate/50% ACN. Gradient: 0-100% B in 60 min. Flow: 180 μl/min. Loop: 50 μl. One-minute fractions were collected and analyzed with MALDI-TOF.
Peptide mass: Bruker Ultraflex MALDI-TOF, N2-laser 337 nm, matrix saturated solution of α-cyano-4-hydroxycinnamic acid, reflector mode.
For another data set, the system named is HCT-15 tumors. Nature of the data set: Biodistribution of cystine- and lactam-bridged conjugates (Eu content) in HCT-15 tumor-bearing mice. The data set is classed as in vivo, athymic-nu nude mice. As to conditions: 4 nmol MJ018 vs 16 nmol MJ069 i.v., 15 min circulation. The method, then:
The biodistribution of the targeting agents MJ018 (lactam-bridged; described in Example 4) and MJ069 (cystine-bridged; described below) comprising functional peptide YGFVWGE was compared in mice carrying primary tumors of HTC-15, a human colorectal cancer cell line.
For production of experimental tumors, 22.5 million (for MJ018), and 1 million (for MJ069) HCT-15 cells were injected subcutaneously into both flanks of athymic-nu nude mice (Harlan Laboratories). The human colorectal cancer HCT-15 cell line (ATCC: CCL-225), called herein also “HCT-15”, was cultured in RPMI 1640 medium with 2 mM L-glutamine adjusted to contain 1.5 g/L sodium bicarbonate, 4.5 g/L glucose, 10 mM HEPES, and 1.0 mM sodium pyruvate, 1% penicillin/streptomycin, 10% fetal bovine serum.
Tumors were harvested when they had reached a minimum weight of 0.1 g. […]
For determination of the Eu content of the tumors and control or gans, 0.05-0.2 g of tissue was transferred into lysis buffer (20 mM Tris-HCl, 150 mM NaCl, 1% Nonident P40, pH 7.5) and homogenised. The Eu-content was determined from tissue lysates prepared into Enhancement solution (Perkin Elmer Wallac Ltd., Turku, Finland) and transferred to DELFIA Micro titration strip plates (Perkin Elmer Wallac Ltd., Turku, Finland). Time-resolved fluorescence was measured after incubation with a Wallac 1420 VICTOR3™ V plate reader using a D615 nm filter.

A further data set deals with HSC-3. Nature of the data set: Cell binding assay of immobilized peptide conjugate (MTT detection). The data set is classed as cell-based, human. The following applies: HSC-3 cells, wells coated at 30 μg/ml, 30 min 37° C. The protocol:
The human oral squamous cell carcinoma line HSC-3, called herein “HSC-3” (JCRB Cell Bank 0623, National Institute of Health Sciences, Japan) was cultivated in 1:1 DMEM and Ham's F 12 medium containing 10% FBS 1% penicillin/streptomycin, L-glutamate and sodium pyruvate and 0.4 ng/ml hydrocortisone.
(§1) Preparation of plates for the assays. Wells of Reacti-Bind Maleimide activated clear strip plate (Pierce, Prod#. 15150) were coated with a peptide conjugate a*YGFVWGEE*-(Teg-E)2-EAT, Compound MJ013 prepared in Example 3, at a concentration of 30 μg/ml. The incubation was carried out overnight at 20° C. The binding buffer containing unbound peptide was re-moved from the wells.
(§2) The wells were blocked with blocking buffer (0.5% BSA, 0.05% Tween20 in phosphate buffer saline (PBS). PBS was prepared as follows: 40 g of NaCl, 1 g of KCl, 7 g of Na2HPO4×2H2O and 1 g of KH2PO4 were dissolved in […] of deionized H2O). Blank wells as controls were prepared by treating empty wells with blocking buffer. […]
(§3) Cell binding assay: 75000 cells in volume of 150 μl of medium were added into coated wells and were incubated for 30 min at 37° C. […] After formazan was solubilized by 10% SDS-0,01 M HCl, it was quantified with an ELISA spectrometer (ThermoLabsystems Multiscan EX) at 560 nm. […] The following day the absorbance of plate was measured at 560 nm with an ELISA-reader (ThermoLab-systems, Multiskan EX).

The test system of another data set is HCT-15. The data set is described as above. The data set is classed as cell-based, human. As to conditions: HCT-15 cells, wells coated at 30 μg/ml, 30 min 37° C. The protocol:
The human colorectal cancer HCT-15 cell line (ATCC: CCL-225), called herein also “HCT-15”, was cultured in RPMI 1640 medium with 2 mM L-glutamine adjusted to contain 1.5 g/L sodium bicarbonate, 4.5 g/L glucose, 10 mM HEPES, and 1.0 mM sodium pyruvate, 1% penicillin/streptomycin, 10% fetal bovine serum.
as §1, §2, §3

For a further data set, the system named is HCT-15-LM1. Described as above. It counts as cell-based, human. The following applies: HCT-15-LM1 cells, wells coated at 30 μg/ml, 30 min 37° C.
Description: The colorectal cancer cell line HCT-15-LM1 was developed as follows. The cell culture was started with cancer cells from lung metastases which had developed after injection of human colorectal cancer HCT-15 cells into the bloodstream of a mouse. The inoculation procedure was then repeated with HCT-15-LM1 cells leading to the establishment of another metastatic cell line, HCT-15-LM2.
as §1
The wells were blocked with blocking buffer (0.5% BSA, 0.05% Tween20 in phosphate buffer saline (PBS). PBS was prepared as follows: 40 g of NaCl, 1 g of KCl, 7 g of Na2HPO4×2H2O and 1 g of KH2PO4 were dissolved in 1000 ml of deionized H2O). […]
as §3

Another data set concerns C8161T. The data set is described as above. The following applies: C8161T cells, wells coated at 30 μg/ml, 30 min 37° C. The data set is classed as cell-based, human. The method, then: The human melanoma cell line C8161 has been described previously by Welch et al. in Int. J. Cancer, 1991, 47: 227-237. A more metastatic cell line C8161T, called herein also “C8161T”, was developed by culturing cells from a subcutaneous melanoma tumor developed after inoculation of C8161 melanoma cells on the flank of a nude mouse. The cell line was cultured in DMEM medium adjusted to contain 2 mM L-glutamine, 1% penicillin/streptomycin, and 10% fetal bovine serum.
Preparation of plates for the assays. Wells of Reacti-Bind Maleimide activated clear strip plate (Pierce, Prod#. 15150) were coated with a peptide conjugate a*YGFVWGEE*-(Teg-E)2-EAT, Compound MJ013 prepared in Example 3, at a concentration of 30 μg/ml. The incubation was carried out overnight at 20° C. The binding buffer containing unbound peptide was re-moved from the wells. […]
as §3

Another data set concerns NIH3T3. Described as above. It counts as cell-based, mouse. As to conditions: control cell line NIH3T3, wells coated at 30 μg/ml, 30 min 37° C. The method, then:
The mouse fibroblast line NIH3T3, called herein also “NIH3T3”, has been described previously by Koga et al. in Gann, 1979, 70: 585-591. The cell line was cultured in DMEM medium adjusted to contain 2 mM L-glutamine, 1% penicillin/streptomycin, and 10% fetal bovine serum.
as §1, §2, §3

In the next data set the test system is SVEC4-10. The description is as above. It counts as cell-based, mouse. As to conditions: control cell line SVEC4-10, wells coated at 30 μg/ml, 30 min 37° C. The method, then: The mouse vascular endothelial cell line SVEC4-10, called herein also “SVEC4-10”, has been described previously by O'Connell et al. in J. Immunol., 1990, 144: 521-525. The cell line was cultured in DMEM medium adjusted to contain 2 mM L-glutamine, 1% penicillin/streptomycin, and 10% fetal bovine serum.
as §1, §2, §3

2 substances from patent publication US20070231258A1, “Peptide conjugates” (KARYON CTT LTD., priority 2006, published 2007) can be followed below.

*1 amine or outer side, *2 acyl side, *3 side chain or, on linkers, in order; H or OH if unused. Bridges are numbered along the chain shown (N, C = ends). Primed or numbered codes have the meaning given here. [ ]: non-standard residue; d: D form. DTPA′ = diethylenetriaminepentaacetic acid chelator; NHCH2CH2SCH2CO = O=C(CSCCN[*:1])[*:2]; Cysteamide = C(CS[*:3])N[*:1]; AEEEA = NCCOCCOCCOCC(=O)O; AABz = not defined here

On to “a*YGFVWGEE*-(Teg-E)2-AEM-AABz-DTPA-Eu (YGFVWGEE[AEEEA]E[AEEEA]E-{NHCH2CH2SCH2CO-AABz-DTPA′}; lactam N-8; not fully specified (N-terminus); reading uncertain; also: DTPA chelate of Eu) [MJ018]”, for which the “Observed compound peak heights prior to incubation” value in data set [1] (0 h, human blood plasma/PBS 1:1, 37° C.) was 100%. Moreover, the “Observed compound peak heights after four hours” value in data set [1] (4 h, human blood plasma/PBS 1:1, 37° C.) is listed as 100%. The “degradation during incubation in plasma” value in data set [1] (4 h incubation in human plasma) is listed as “no degradation”. Further, the “accumulation in tumor tissue (tissue-to-muscle Eu content), lactam- vs cystine-bridged” value in the data set with HCT-15 tumors is “accumulated more strongly in the tumor tissue than the cystine-bridged conjugate MJ069”.

Take “a*YGFVWGEE*-(Teg-E)2-EAT (YGFVWGEE[AEEEA]E[AEEEA]E-Cysteamide; lactam N-8; not fully specified (N-terminus)) [MJ013]”: the “cell binding to immobilized peptide conjugate (absorbance at 560 nm)” value in the data set on HSC-3 is listed as “bind selectively”; in the data set on HCT-15, “bind selectively”; in the data set on HCT-15-LM1, “bind selectively”; in the data set with C8161T it was “bind selectively”; with NIH3T3, “significantly less binding”; with SVEC4-10 it was “significantly less binding”.
